Laboratory results as given in patent US9840512B2, “Antidiabetic bicyclic compounds” (Merck Sharp & Dohme Corp., priority 2013, dated 2017).
Where two headings read alike, the source gives them in different places.

Molecular target: human GPR40 (Homo sapiens, UniProt O14842)
Assay: Inositol Phosphate Turnover (IP1) Assay 2
Assay type: cell-based
Parameters: expressed in transfected cells
Protocol: Human and mouse GPR40 stable cell-lines were generated in CHO cells stably expressing NFAT BLA (Beta-lactamase). A human GPR40 stable cell-line was generated in HEK cells stably expressing the aequorin expressing reporter. The expression plasmids were transfected using lipofectamine (Life Technologies) following manufacturer's instructions. Stable cell-lines were generated following drug selection.
The assay is performed in 384-well format. HEK cells stably expressing human GPR40 are plated at 15,000 cells per well in growth medium (DMEM/10% fetal calf serum). Cell plates are then incubated 16 hours at 37 degrees in a 5% CO2 incubator.
Measurement of Inositol Phosphate Turnover (IP1) is performed using the CisBio IP-One kit (Part number 62IPAPEB). After the 16 hour incubation, the cells are washed with HEPES buffer and 10 ul of stimulation buffer (prepared as described in the kit) is added to each well. In a separate plate, compounds are diluted in DMSO (400-fold over the final concentration in the assay well) and 25 nl is acoustically transferred to the appropriate well in the assay cell plate. The plates are then incubated for 60 minutes at 37 degrees. 10 ul of detection buffer (also prepared as described in the IP-One kit) is added to each well and the plates are incubated for 60 minutes in the dark. The plates are then read in a Perkin Elmer EnVision or equivalent reader able to measure FRET.

[1] = HEK cells stably expressing human GPR40, Table 2, read-out: Human IP1
[2] = HEK cells stably expressing human GPR40, Table 3, read-out: Human IP1 activity

Chain of human GPR40 (O14842 whole entry): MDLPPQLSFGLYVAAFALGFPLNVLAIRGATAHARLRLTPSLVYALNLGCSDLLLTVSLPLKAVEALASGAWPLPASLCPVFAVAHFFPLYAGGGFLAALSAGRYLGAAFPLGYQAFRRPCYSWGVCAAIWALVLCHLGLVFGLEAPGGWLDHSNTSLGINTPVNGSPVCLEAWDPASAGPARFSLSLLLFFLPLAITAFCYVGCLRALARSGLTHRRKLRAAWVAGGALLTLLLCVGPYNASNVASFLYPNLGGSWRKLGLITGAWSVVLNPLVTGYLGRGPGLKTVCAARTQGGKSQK

Structure (SMILES) | EC50 [1] [µM] | EC50 [2] [µM]
COc1ccc(F)c(-c2cnc(C3CCc4ccc([C@H](C5CC5)[C@H](C)C(=O)O)cc4O3)c(F)c2)c1 (single isomer, unassigned) [Example 105b] | 0.00079 | 
O=C(O)C[C@H](c1ccc2c(c1)OC(c1ccc(-c3cccc(OCC(F)(F)F)c3)cc1)CC2)C1CC1 (some centres unmarked) [Example 73] | 1.2 | 
COc1cc(-c2ccc(C3CCc4ccc([C@H](C5CC5)[C@H](C)C(=O)O)cc4O3)nc2)ccn1 (single isomer, unassigned) [Example 120a] | 0.0044 | 
COc1cc(-c2ccc(C3CCc4ccc([C@H](C5CC5)[C@H](C)C(=O)O)cc4O3)nc2)ccn1 (single isomer, unassigned) [Example 120b] | 0.0019 | 
COc1ccc(F)c(-c2ccc(C3CCc4ccc([C@@H](CC(=O)O)C5CC5)cc4O3)cc2C(OC)C2CC2)c1 (mixture of isomers) [Example 126] | 0.0141 | 
COc1ccc(F)c(-c2ccc(C3CCc4ccc(C(CC(=O)O)C5CC5)cc4O3)cc2C2=CCCC2(C)C)c1 (single isomer, unassigned) [Example 101a] | 0.662 | 
COc1cc(-c2cnc(C3CCc4ccc([C@H](C5CC5)[C@H](C)C(=O)O)cc4O3)c(F)c2)c(F)cn1 (single isomer, unassigned) [Example 110a] | 0.0068 | 
COc1ccc(F)c(-c2ccc([C@@H]3COc4ccc([C@H](C5CC5)[C@H](C)C(=O)O)cc4O3)cc2Cl)c1 [Example 178] |  | 0.0106
COc1ccc(F)c(-c2ccc(C3CCc4ccc([C@H](C5CC5)[C@H](C)C(=O)O)cc4O3)nc2)c1 (single isomer, unassigned) [Example 97a] | 0.0009 | 
COc1ccc(F)c(-c2ccc(C3CCc4ccc(C(C5CCC5)C(C)C(=O)O)cc4O3)cc2)c1 (single isomer, unassigned) [Example 155] | 0.001 | 
COc1ccc(F)c(-c2ccc(C3CCc4ccc([C@H](C5CC5)[C@H](C)C(=O)O)cc4O3)nc2C2=CCCC2(C)C)c1 (mixture of isomers) [Example 114] | 0.0088 | 
COc1ccc(F)c(-c2ccc(C3CCc4ccc([C@H](C5CC5)[C@H](C)C(=O)O)cc4O3)nc2C(F)(F)F)c1 (single isomer, unassigned) [Example 111a] | 0.006 | 
COc1ccc(F)c(-c2ccc(C3CCc4ccc(C(C)CC(=O)O)cc4O3)cc2)c1 (single isomer, unassigned) [Example 139] | 0.116 | 
COc1cc(-c2ccc(C3CCc4ccc([C@@H](CC(=O)O)C5CC5)cc4O3)c(F)c2)c(F)cc1F (mixture of isomers) [Example 95] | 0.218 | 
COc1ccc(F)c(-c2ccc(C3COc4ccc([C@H](C5CC5)[C@H](C)C(=O)O)c(F)c4O3)nc2)c1 (mixture of isomers) [Example 165] |  | 0.0026
CC#C[C@@H](CC(=O)O)c1ccc2c(c1)OCC(c1ccc(-c3cc(OC)ccc3F)cc1)O2 (single isomer, unassigned) [Example 177] |  | 0.87
COc1cc(F)cc(-c2ccc(C3CCc4ccc([C@@H](CC(=O)O)C5CC5)cc4O3)cc2)c1 (some centres unmarked) [Example 72] | 0.116 | 
COc1ccc(F)c(-c2ccc(C3CCc4ccc(C(C5CCC5)C(C)C(=O)O)cc4O3)cc2)c1 (single isomer, unassigned) [Example 152, (2S,3S)-3-cyclobutyl-3-((R or S)-2-(2′-fluoro-5′-methoxy-[1,1′-biphenyl]-4-yl)chroman-7-yl)-2-methylpropanoic acid] | 0.774 | 

Structure (SMILES) | EC50 [1] [µM] | EC50 [2] [µM]
COc1cc(-c2ccc(C3CCc4ccc([C@H](C5CC5)[C@H](C)C(=O)O)cc4O3)cc2)ccn1 (single isomer, unassigned) [Example 118b] | 0.0059 | 
COc1ccc(F)c(-c2ccc([C@@H]3CCc4ccc([C@@H](CC(=O)O)C5CCC5)cc4O3)cc2)c1 (single isomer, unassigned) [Example 151, (3S)-3-cyclobutyl-3-((R or S)-(2-(2′-fluoro-5′-methoxy-[1,1′-biphenyl]-4-yl)chroman-7-yl)propanoic acid] | 0.079 | 
COc1ccc(F)c(-c2ccc([C@@H]3COc4ccc([C@H](C5CC5)[C@H](C)C(=O)O)cc4O3)cc2C(OC)C(C)(C)C)c1 (some centres unmarked) [Example 163] |  | 0.0021
COc1ccc(F)c(-c2ccc(C3CCc4ccc([C@@H](CC(=O)O)C5CC5)cc4O3)cc2C(OC)C(C)(C)C)c1 (single isomer, unassigned) [Example 125d] | 0.256 | 
COc1cccc(-c2ccc(C3CCc4ccc([C@@H](CC(=O)O)C5CC5)cc4O3)cc2)n1 (some centres unmarked) [Example 75] | 0.304 | 
COc1ccc(F)c(-c2ccc([C@@H]3COc4ccc([C@H](C5CC5)[C@H](C)C(=O)O)cc4O3)cc2-c2cccc3ccn(C)c23)c1 [Example 180] |  | 0.0048
COc1ccc(F)c(-c2ccc(C3CCc4ccc(C(C)CC(=O)O)cc4O3)cc2)c1 (single isomer, unassigned) [Example 138, (S or R)-3-((R or S)-2-(2′-fluoro-5′-methoxy-[1,1′-biphenyl]-4-yl)chroman-7-yl)butanoic acid] | 1.2 | 
COc1ccc(F)c(-c2ccc(C3CCc4ccc(C(C)C(C)C(=O)O)cc4O3)cc2)c1 (single isomer, unassigned) [Example 145] | 0.077 | 
COc1ccc(F)c(-c2ccc(C3COc4ccc([C@@H](CC(=O)O)C5CC5)cc4O3)cc2)c1 (single isomer, unassigned) [Example 168] |  | 0.12
COc1ccc(F)c(-c2ccc(C3CCc4ccc([C@H](C5CC5)[C@@H](C)C(=O)O)cc4O3)nc2)c1 (single isomer, unassigned) [Example 97b] | 0.03 | 
COc1ccc(F)c(-c2cnc(C3CCc4ccc([C@H](C5CC5)[C@H](C)C(=O)O)cc4O3)cn2)c1 (mixture of isomers) [Example 131] | 0.0017 | 
COc1ccc(F)c(-c2ccc(C3CCc4ccc([C@H](C5CC5)[C@@H](C)C(=O)O)cc4O3)cc2)c1 (single isomer, unassigned) [Example 65] | 0.051 | 
COc1ccc(F)c(-c2ccc([C@@H]3COc4ccc([C@H](C5CC5)[C@H](C)C(=O)O)cc4O3)c(C(F)(F)F)n2)c1 [Example 162, (2S,3R)-3-cyclopropyl-3-((R)-3-(6-(2-fluoro-5-methoxyphenyl)-2-(trifluoromethyl)-pyridin-3-yl)-2,3-dihydrobenzo[b][1,4]dioxin-6-yl)-2-methylpropanoic acid] |  | 0.0082
COc1ccc(F)c(-c2ccc(C3CCc4ccc(C(C5CCC5)C(C)C(=O)O)cc4O3)cc2)c1 (single isomer, unassigned) [Example 159] | 0.0018 | 
O=C(O)C[C@H](c1ccc2c(c1)OC(c1ccc(-c3cccc(OC4CC4)c3)cc1)CC2)C1CC1 (some centres unmarked) [Example 78] | 1.7 | 
COc1ccc(F)c(-c2ccc(C3CCc4ccc([C@@H](CC(=O)O)C5CC5)cc4O3)c(F)c2)c1 (mixture of isomers) [Example 88] | 0.0065 | 
COc1ccc(F)c(-c2ccc(C3CCc4ccc([C@@H](CC(=O)O)C5CC5)cc4O3)cc2C(OC)C(C)(C)C)c1 (single isomer, unassigned) [Example 125c] | 0.235 | 

The remaining lines, values ahead:

EC50 [1] [µM] | EC50 [2] [µM] | Structure (SMILES)
3.18 |  | COc1ccc(F)c(-c2ccc(C3CCc4ccc(C(C)C(C)C(=O)O)cc4O3)cc2)c1 (single isomer, unassigned) [Example 147b]
0.021 |  | COc1ccc(F)c(-c2ccc(C3CCc4ccc([C@H](C5CC5)[C@H](C)C(=O)O)cc4O3)nc2C(OC)C(C)(C)C)c1 (single isomer, unassigned) [Example 135b]
0.138 |  | COc1ccc(F)c(-c2ccc(C3CCc4ccc(C(C)C(C)C(=O)O)cc4O3)cc2)c1 (single isomer, unassigned) [Example 147c]
0.0039 |  | COc1ccc(F)c(-c2cc(F)c(C3CCc4ccc([C@H](C5CC5)[C@H](C)C(=O)O)cc4O3)nc2C)c1 (single isomer, unassigned) [Example 113a]
0.0078 |  | COc1cc(-c2ccc(C3CCc4ccc([C@H](C5CC5)[C@H](C)C(=O)O)cc4O3)nc2C)ccn1 (single isomer, unassigned) [Example 119b]
0.0042 |  | COc1ccc(F)c(-c2cnc(C3CCc4ccc([C@H](C5CC5)[C@H](C)C(=O)O)cc4O3)c(C)c2)c1 (single isomer, unassigned) [Example 115a]
0.244 |  | COc1ccc(F)c(-c2ccc(C3CCc4ccc([C@@H](CC(=O)O)C5CC5)cc4O3)cn2)c1 (single isomer, unassigned) [Example 122b]
0.00092 |  | COc1cc(-c2ccc(C3CCc4ccc([C@H](C5CC5)[C@H](C)C(=O)O)cc4O3)nc2)c(F)cn1 (single isomer, unassigned) [Example 112b]
0.0028 |  | COc1ccc(F)c(-c2ccc(C3CCc4ccc([C@H](C5CC5)[C@H](C)C(=O)O)cc4O3)nc2C(OC)C(C)(C)C)c1 (single isomer, unassigned) [Example 135c]
0.0174 |  | COc1ccc(F)c(-c2cnc(C3CCc4ccc([C@H](C5CC5)[C@H](C)C(=O)O)cc4O3)c(C)c2)c1 (single isomer, unassigned) [Example 115b]
0.0041 |  | COc1cc(-c2ccc(C3CCc4ccc([C@H](C5CC5)[C@H](C)C(=O)O)cc4O3)nc2C)ccn1 (single isomer, unassigned) [Example 119a]
0.07 |  | COc1ccc(F)c(-c2cnc(C3CCc4ccc([C@H](C5CC5)C(C)C(=O)O)cc4O3)nc2)c1 (single isomer, unassigned) [Example 124b]
